Data set [1] relates to Bacillus subtilis. The data set can be described thus: Antibacterial activity against Bacillus subtilis assessed as inhibition of RNA synthesis at 10 mg/L after 50 mins by [3H]-uridine incorporation assay. It counts as functional.
Data set [2] relates to Bacillus subtilis. The data set can be described thus: Antibacterial activity against Bacillus subtilis assessed as inhibition of plasma membrane lipids synthesis at 10 mg/L after 50 mins by [3H]-sodium acetate incorporation assay. Format: functional.
Data set [3] concerns Bacillus subtilis. Nature of the data set: Antibacterial activity against Bacillus subtilis assessed as inhibition of protein synthesis at 10 mg/L after 50 mins by [35S]-methionine incorporation assay. Format: functional.
In data set [4] the test system is Bacillus subtilis. The data set can be described thus: Antibacterial activity against Bacillus subtilis assessed as inhibition of peptidoglycan synthesis at 10 mg/L after 50 mins by [3H]-N-acetylglucosamine incorporation assay. It counts as functional.
In data set [5] the test system is Bacillus subtilis. The data set can be described thus: Antibacterial activity against Bacillus subtilis assessed as inhibition of DNA synthesis at 10 mg/L after 50 mins by [3H]thymidine incorporation assay. Format: functional. A general note: Incorporation of labelled thymidine or its analogues reports DNA synthesis.
Data set [6] is described as follows: Chemical stability of compound at 50 to 500 mg/L at pH 5 after 24 hrs at room temperature by LC-MS analysis. It counts as physicochemical. The note with it: buffer, pH 5, 24 h.
The subject of data set [7] is TERT-RPE1. Nature of the data set: Cytotoxicity against human RPE1 cells assessed as reduction in cell viability after 48 hrs by ATPlite reagent based assay. The note with it: tert-rpe1, 48 h.
The test system of data set [8] is Stenotrophomonas maltophilia. The data set can be described thus: Antibacterial activity against Stenotrophomonas maltophilia S2-23 after 24 hrs by microdilution method. Format: functional. The note with it: S2-23, 24 h.
Data set [9] relates to TERT-RPE1. Nature of the data set: Cytotoxicity against human RPE1 cells assessed as disruption of cell membrane integrity after 4 hrs by CytoTox-ONE-based assay. The following applies: tert-rpe1, 4 h.
Data set [10] deals with HepG2. The data set can be described thus: Induction of apoptosis in human HepG2 cells assessed as caspase 3/7 activation up to 80 mg/L after 4 hrs by caspase-Glo 3/7 luminescent assay. Format: cell-based. The note with it: hepg2, 4 h.
For data set [11], the system named is HepG2. The data set can be described thus: Cytotoxicity against human HepG2 cells assessed as reduction in cell viability after 48 hrs by ATPlite reagent based assay. The note with it: hepg2, 48 h. In general terms: Cellular ATP, detected with luciferase, serves as a proxy for viable cell number.
Data set [12] deals with Pseudomonas aeruginosa. Nature of the data set: Antibacterial activity against Pseudomonas aeruginosa 16575 after 24 hrs by microdilution method. It counts as functional. The note with it: Pseudomonas aeruginosa, 16575, 24 h.
A short description of data set [13]: Chemical stability of compound at 50 to 500 mg/L at pH 5 after 24 hrs at 37 degC by LC-MS analysis. It counts as physicochemical. The note with it: buffer, pH 5, 24 h.
Data set [14] relates to Bacillus subtilis. The data set can be described thus: Antibacterial activity against Bacillus subtilis after 24 hrs by microdilution method. Format: functional. On the technique in general: In broth dilution the organism is exposed to a series of concentrations in liquid medium.
The nature of data set [15]: Chemical stability of compound at 50 to 500 mg/L at pH 0.18 after 24 hrs at room temperature by LC-MS analysis. It counts as physicochemical. The following applies: buffer, pH 0.18, 24 h.
Data set [16] has as its system TERT-RPE1. The data set can be described thus: Induction of apoptosis in human RPE1 cells assessed as caspase 3/7 activation up to 80 mg/L after 4 hrs by caspase-Glo 3/7 luminescent assay. It counts as cell-based. The following applies: tert-rpe1, 4 h.
Data set [17] has as its system Escherichia coli. Nature of the data set: Antibacterial activity against Escherichia coli 16702 after 24 hrs by microdilution method. It counts as functional. The note with it: Escherichia coli, 16702, 24 h.
Data set [18] deals with Bacillus subtilis. The data set can be described thus: Antibacterial activity against Bacillus subtilis assessed as inhibition of protein synthesis at 2 mg/L after 50 mins by [35S]-methionine incorporation assay. Format: functional.
The subject of data set [19] is Bacillus subtilis. The data set can be described thus: Antibacterial activity against Bacillus subtilis assessed as inhibition of plasma membrane lipids synthesis at 2 mg/L after 50 mins by [3H]-sodium acetate incorporation assay. Format: functional.
The subject of data set [20] is Staphylococcus haemolyticus. Nature of the data set: Antibacterial activity against fluoroquinolne-resistant Staphylococcus haemolyticus 16568 after 24 hrs by microdilution method. It counts as functional. The following applies: Staphylococcus haemolyticus, 16568, 24 h.
In data set [21] the test system is TERT-RPE1. The data set can be described thus: Cytotoxicity against human RPE1 cells assessed as disruption of cell membrane integrity at >80 mg/L after 4 hrs by CytoTox-ONE-based assay. The note with it: tert-rpe1, 4 h.
In data set [22] the test system is Bacillus subtilis. Nature of the data set: Antibacterial activity against Bacillus subtilis assessed as inhibition of DNA synthesis at 2 mg/L after 50 mins by [3H]thymidine incorporation assay. It counts as functional.
For data set [23], the system named is HepG2. The data set can be described thus: Cytotoxicity against human HepG2 cells assessed as disruption of cell membrane integrity after 4 hrs by CytoTox-ONE-based assay. The following applies: hepg2, 4 h.
Data set [24] concerns Lipid bilayer. The data set can be described thus: Binding affinity to DOPC large unilamellar vesicle assessed as carboxyfluorescein leakage at 10 to 20 ug/ml after 20 secs by fluorescence-based assay relative to control.
Data set [25] has as its system Escherichia coli. The data set can be described thus: Antibacterial activity against Escherichia coli CCM 3954 after 24 hrs by microdilution method. The following applies: CCM 3954, 24 h. Format: functional.
The test system of data set [26] is Lipid bilayer. The data set can be described thus: Binding affinity to DOPG large unilamellar vesicle assessed as carboxyfluorescein leakage at 10 mg/L after 20 secs by fluorescence-based assay relative to control.
For data set [27], the system named is Pseudomonas aeruginosa. Nature of the data set: Antibacterial activity against Pseudomonas aeruginosa CCM 3955 after 24 hrs by microdilution method. The note with it: CCM 3955, 24 h. Format: functional.
Data set [28] can be described thus: Chemical stability of compound at 50 to 500 mg/L at pH 0.18 after 24 hrs at 37 degC by LC-MS analysis. It counts as physicochemical. The note with it: buffer, pH 0.18, 24 h.
A further data set concerns Burkholderia multivorans. The data set can be described thus: Antibacterial activity against Burkholderia multivorans after 24 hrs by microdilution method. It counts as functional.
The next data set has as its system BJ. The data set can be described thus: Cytotoxicity against human BJ cells assessed as reduction in cell viability after 48 hrs by ATPlite reagent based assay.
The test system of data set [29] is Staphylococcus epidermidis. The data set can be described thus: Antibacterial activity against Staphylococcus epidermidis 8700/B after 24 hrs by microdilution method. It counts as functional.
For data set [30], the system named is Bacillus subtilis. The data set can be described thus: Antibacterial activity against Bacillus subtilis assessed as inhibition of RNA synthesis at 2 mg/L after 50 mins by [3H]-uridine incorporation assay. It counts as functional.
The next data set has as its system Acinetobacter baumannii. Nature of the data set: Antibacterial activity against Acinetobacter baumannii A3-08 after 24 hrs by microdilution method. It counts as functional. The note with it: A3-08, 24 h.
The nature of data set [31]: Chemical stability of compound at 50 to 500 mg/L at pH 8.8 after 24 hrs at room temperature by LC-MS analysis. The following applies: buffer, pH 8.8, 24 h. It counts as physicochemical.
The test system of data set [32] is Bacillus subtilis. Nature of the data set: Antibacterial activity against Bacillus subtilis assessed as inhibition of peptidoglycan synthesis at 2 mg/L after 50 mins by [3H]-N-acetylglucosamine incorporation assay. It counts as functional.
The test system of another data set is Enterococcus faecalis. Nature of the data set: Antibacterial activity against Enterococcus faecalis CCM 4224 after 24 hrs by microdilution method. The note with it: CCM 4224, 24 h. Format: functional.
For another data set, the system named is Salmonella enteritidis. Nature of the data set: Antibacterial activity against Salmonella enteritidis S2-25 after 24 hrs by microdilution method. The following applies: Salmonella enterica, S2-25, 24 h. Format: functional, Salmonella enterica subsp. enterica serovar Enteritidis.
Data set [33] concerns Staphylococcus aureus. The data set can be described thus: Antibacterial activity against methicillin-resistant Staphylococcus aureus 4591 clinical isolates after 24 hrs by microdilution method. It counts as functional. The following applies: Staphylococcus aureus, 4591, 24 h.
Data set [34] is described as follows: Chemical stability of compound at 50 to 500 mg/L at pH 8.8 after 24 hrs at 37 degC by LC-MS analysis. It counts as physicochemical. The note with it: buffer, pH 8.8, 24 h.
In another data set the test system is Streptococcus agalactiae. The data set can be described thus: Antibacterial activity against Streptococcus agalactiae after 24 hrs by microdilution method. It counts as functional.
Data set [35] is described as follows: Apparent permeability across apical to basolateral side in human Caco2 cells at 200 uM after 3 hrs by LC-MS analysis. It counts as ADME, cell-based. The note with it: caco-2, 3 h.
Data set [36] deals with Staphylococcus aureus. The data set can be described thus: Antibacterial activity against Staphylococcus aureus CCM 4223 after 24 hrs by microdilution method. It counts as functional. The note with it: CCM 4223, 24 h.
For the next data set, the system named is Enterococcus faecium. The data set can be described thus: Antibacterial activity against vancomycin-resistant Enterococcus faecium 419/ana clinical isolates after 24 hrs by microdilution method. Format: functional.
In data set [37] the test system is Lipid bilayer. Nature of the data set: Binding affinity to DOPG large unilamellar vesicle assessed as carboxyfluorescein leakage at 10 ug/ml after 20 secs by fluorescence-based assay relative to control.

The values that follow come from ChEMBL document CHEMBL4038308, “Lipophosphonoxins II: Design, Synthesis, and Properties of Novel Broad Spectrum Antibacterial Agents” (J Med Chem, 2017).

As a reminder, the MIC is the lowest concentration that inhibits growth of the organism. A low value points to greater potency.

SMILES strings stand for the structures. Converted amounts (≈) assume the structure as drawn. The source made the active and inactive calls. The rule behind the calls is not given here.

Take `O=C(N[C@H](CO)[C@H](O)c1ccc([N+](=O)[O-])cc1)C(Cl)Cl`: the inhibition entry in the data set on Bacillus subtilis [1], in the data set with Bacillus subtilis [2], in the data set on Bacillus subtilis [3], with Bacillus subtilis [4] and in the data set on Bacillus subtilis [5] was “Active” throughout.

Take `CCCCCCCCCCCCCCCOP(=O)(CCN(CCCN)CCCN)OC[C@H]1O[C@@H](n2ccc(=O)[nH]c2=O)[C@H](O)[C@@H]1O` (some centres undefined): the Stability result in data set [6], in data set [13], in [15], in [28], in [31] and in data set [34] was “Stable” throughout. The Activity is on record as 34.8 mg/L with TERT-RPE1 [7]; 73.8 mg/L in the data set with TERT-RPE1 [9]; “Non-Toxic” in the data set with HepG2 [10]; 33.2 mg/L in the data set on HepG2 [11]; “Non-Toxic” in the data set on TERT-RPE1 [16]; “Non-Toxic” with TERT-RPE1 [21]. The Activity entry with HepG2 [23] was “Non-Toxic”; in the data set on Lipid bilayer [24], 20 to 35%; in the data set on BJ, 29.1 mg/L. Further, the MIC was 3.13 µg/mL (≈ 4.63 µM) in data set [8]; 6.25 µg/mL (≈ 9.25 µM) in the data set on Pseudomonas aeruginosa [12]; 3.13 µg/mL (≈ 4.63 µM) against Bacillus subtilis [14]; 25 µg/mL (≈ 37 µM) against Escherichia coli [17]; 3.13 µg/mL (≈ 4.63 µM) in data set [20]; 6.25 µg/mL (≈ 9.25 µM) with Escherichia coli [25]. The MIC with Pseudomonas aeruginosa [27] stood at 3.13 µg/mL (≈ 4.63 µM); with Burkholderia multivorans it was 50 µg/mL (≈ 74 µM); in data set [29], 3.13 µg/mL (≈ 4.63 µM); in the data set on Acinetobacter baumannii, 3.13 µg/mL (≈ 4.63 µM); against Enterococcus faecalis, 50 µg/mL (≈ 74 µM); in the data set with Salmonella enteritidis, 6.25 µg/mL (≈ 9.25 µM). Also, the MIC with Staphylococcus aureus [33] was found to be 1.56 µg/mL (≈ 2.31 µM); against Streptococcus agalactiae it was 1.56 µg/mL (≈ 2.31 µM); in the data set on Staphylococcus aureus [36], 6.25 µg/mL (≈ 9.25 µM); in the data set on Enterococcus faecium it was 6.25 µg/mL (≈ 9.25 µM). Further, the inhibition result with Bacillus subtilis [18], in the data set with Bacillus subtilis [19], with Bacillus subtilis [22], in the data set on Bacillus subtilis [30] and in the data set with Bacillus subtilis [32] was “inactive” each time. Moreover, the result in the data set with Lipid bilayer [26] was Active. In addition, the permeability entry in data set [35] was “Impermeable”. Also, the fold change (FC) in the data set on Lipid bilayer [37] came out at 25.
